Experimental findings from EP4813463A2, “TYK2 INHIBITORS AND COMPOSITIONS AND METHODS THEREOF” (Lynk Pharmaceuticals Co. Ltd., priority 2023, dated 2024) are described below.

≈ marks a conversion by molar mass, not a printed value. Like-named read-outs stand apart in the source and are kept apart here.

One series addresses T1, TYK2-JH2 domain (Homo sapiens, UniProt P29597).
T1 construct: JAK1-JH2 domain or TYK2-JH2 domain enzyme in assay buffer
Description: Binding activity test for JH2 domain of TYK2 (Tb-antibody/tracer FRET). A digest of the protocol:
(§1)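 Competitive TR-FRET binding: compounds dispensed as an 11-point 3-fold dilution series, then Tb-labelled antibody and tracer added to the JH2 protein system. Incubated at 25°C, then overnight at 4°C; FRET signal read on Envision and IC50 (nM) derived.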

Another series addresses T2, JAK1-JH2 domain (Homo sapiens, UniProt P23458).
T2 construct: JAK1-JH2 domain or TYK2-JH2 domain enzyme in assay buffer
As to the kind of experiment: Binding activity test for JH2 domain of JAK1 (Tb-antibody/tracer FRET). A digest of the protocol:
as §1

The subject of series [1] is Ba/F3-FL-TYK2-P760L cells. As to the kind of experiment: Anti-proliferative assay in engineered Ba/F3 cells (Cell-Titer Glo, 72 h). Format: cell-based. The following applies: Mus musculus, concentration that causes 50% growth inhibition, read-out: Baf3-FL-T2P760L. An outline of the steps:
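Ba/F3 cells carrying Tel-dimerization/JAK kinase fusion, IL-3-independent, in RPMI-1640 + 10% FBS; 9-point 3-fold dilutions from 20 µM (0.1% DMSO) added after 24 h, 72 h at 37 °C. Viability by Cell-Titer Glo ATP luminescence; % inhibition versus DMSO cells, blank-corrected, giving IC50.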

The nature of series [2]: Microsomal metabolic stability assay. It counts as in vitro ADME. Conditions: human, liver microsomes, 0.5 mg/mL microsomal protein, 1 µM test article, 2 mM NADPH; for half-life at 1 µM: read-out: Human LM T1/2; for microsomal CLint at 1 µM: read-out: Human LM Clint. A digest of the protocol:
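Test or control compound (1 µM) incubated with microsomes (0.5 mg/mL protein) in 100 mM potassium phosphate pH 7.4, 1.0 mM EDTA at 37°C, started with NADPH regenerating system (2 mM NADPH). Sampled at 0, 5, 15, 30, 45 min, acetonitrile-quenched, LC/MS/MS. T1/2 from ln %remaining vs time slope; CLint = 0.693/T1/2 per mg protein/mL.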

The next series in a line: Kinetic solubility. It counts as physicochemical. Conditions: kinetic from dmso stock, 100 mM pH 7.4 phosphate buffer, 1% DMSO, room temperature, read-out: Kinetics Solubility_PBS7.4. A digest of the protocol:
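Compounds diluted from 10 mM/5 mM DMSO stocks into 100 mM phosphate buffer pH 7.4 (1% DMSO final), shaken 2 h at room temperature, then centrifuged. Dissolved compound in supernatant quantified by LC-MS/MS against a standard curve.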

[3] abbreviates: ratio of JAK1 JH2 to TYK2 JH2 binding IC50.
Setting [4] is: JH2 domain enzyme; 60 min at 25°C, then 4°C overnight; read-out: TYK2 JH2 Binding IC50.
Where [5] appears, read: JH2 domain enzyme; 60 min at 25°C, then 4°C overnight; read-out: JAK1 JH2 Binding IC50.
Where [6] appears, read: BaF3, 72 h, 72 h compound treatment.
Where [7] appears, read: phosphate buffer, pH 7.4, aqueous buffer.

T1 sequence (P29597 589-875 limits assumed): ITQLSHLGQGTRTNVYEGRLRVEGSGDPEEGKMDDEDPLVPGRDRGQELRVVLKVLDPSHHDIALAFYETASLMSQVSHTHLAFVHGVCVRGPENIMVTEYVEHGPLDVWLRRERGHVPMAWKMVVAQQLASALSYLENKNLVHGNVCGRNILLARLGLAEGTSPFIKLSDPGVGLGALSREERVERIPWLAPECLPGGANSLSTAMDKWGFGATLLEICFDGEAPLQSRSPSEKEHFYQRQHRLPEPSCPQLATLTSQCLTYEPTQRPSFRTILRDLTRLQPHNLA
T2 sequence (P23458 583-855 limits assumed): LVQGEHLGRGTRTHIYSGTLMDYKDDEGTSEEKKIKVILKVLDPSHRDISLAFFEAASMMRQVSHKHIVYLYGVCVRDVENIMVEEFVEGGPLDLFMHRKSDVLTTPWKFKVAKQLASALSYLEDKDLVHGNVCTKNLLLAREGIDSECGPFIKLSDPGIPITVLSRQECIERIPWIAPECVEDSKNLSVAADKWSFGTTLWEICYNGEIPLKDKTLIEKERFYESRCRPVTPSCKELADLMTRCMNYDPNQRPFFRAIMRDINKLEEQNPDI

Consider `COC(=O)c1cnc(NC(=O)[C@@H]2C[C@@H]2F)cc1Nc1nn(C)c2ccc(C(O)C(F)(F)F)c(OC)c12` (single isomer, unassigned) [Example 122A, Methyl 6-((1S,2S)-2-fluorocyclopropane-1-carboxamido)-4-((4-methoxy-1-methyl-5-((S*)-2,2,2-trifluoro-1-hydroxyethyl)-1H-indazol-3-yl)amino) nicotinate], for which the JAK1/TYK2 selectivity on TYK2-JH2 domain (setting [3]) is given as 216.29. Further, the IC50 at TYK2-JH2 domain (read-out: TYK2 JH2 Binding IC50; JH2 domain enzyme; 60 min at 25°C, then 4°C overnight) was 0.072 nM; on JAK1-JH2 domain (read-out: JAK1 JH2 Binding IC50; JH2 domain enzyme; 60 min at 25°C, then 4°C overnight), 15.6 nM; in series [1] (BaF3, 72 h compound treatment) it was 0.8 nM. Moreover, in series [2] (pH 7.4), the half-life at 1 µM came out at 89.6 min. Further, the microsomal CLint at 1 µM in series [2] is 15.5 µL/min/mg. The solubility kinetic at 2 h in the series “Kinetic solubility” (aqueous buffer) is 10.3 µM (≈ 5.27 µg/mL).

With `[2H]C([2H])([2H])NC(=O)c1cnc(NC(=O)C2CC2)cc1Nc1cnn2ccc([C@H](O)C(F)(F)F)c(OC)c12` [Example 7A, (S)-6-(cyclopropanecarboxamido)-4-((4-methoxy-5-(2,2,2-trifluoro-1-hydroxyethyl)pyrazolo[1,5-a]pyridin-3-yl)amino)-N-(methyl-d3)nicotinamide], the IC50 on TYK2-JH2 domain (setting [4]) was determined as 0.097 nM; at JAK1-JH2 domain (setting [5]), 10.4 nM; in series [1] (setting [6]) it was 5.4 nM. The JAK1/TYK2 selectivity on TYK2-JH2 domain (setting [3]) amounted to 107.6. For the same molecule, in series [2] (pH 7.4), the microsomal CLint at 1 µM amounted to 15.6 µL/min/mg. Also, the half-life at 1 µM in series [2] (pH 7.4) was found to be 88.7 min. In addition, the solubility kinetic at 2 h in “Kinetic solubility” (setting [7]) came to 52.1 µM (≈ 25.1 µg/mL).

As for `[2H]C([2H])([2H])NC(=O)c1cnc(NC(=O)C2CC2)cc1Nc1cnn2ccc([C@@H](O)C(F)(F)F)c(OC)c12` [Example 7B, (R)-6-(cyclopropanecarboxamido)-4-((4-methoxy-5-(2,2,2-trifluoro-1-hydroxyethyl)pyrazolo[1,5-a]pyridin-3-yl)amino)-N-(methyl-d3)nicotinamide], the IC50 came to 0.528 nM on TYK2-JH2 domain (setting [4]), 12.9 nM at JAK1-JH2 domain (setting [5]) and 223 nM in series [1] (setting [6]). Besides, the JAK1/TYK2 selectivity at TYK2-JH2 domain (setting [3]) is given as 24.4. Moreover, the microsomal CLint at 1 µM in series [2] (pH 7.4) stood at 10.8 µL/min/mg. Moreover, the half-life at 1 µM in series [2] (pH 7.4) is 128 min. The solubility kinetic at 2 h in the series “Kinetic solubility” (setting [7]) was determined as 55.8 µM (≈ 26.9 µg/mL).

Turning to `[2H]C([2H])([2H])NC(=O)c1cnc(Nc2ccn(C)n2)cc1Nc1cnn2ccc([C@H](O)C(F)(F)F)c(OC)c12` [Example 21, (S)-4-((4-methoxy-5-(2,2,2-trifluoro-1-hydroxyethyl)pyrazolo[1,5-a]pyridin-3-yl)amino)-N-(methyl-d3)-6-((1-methyl-1H-pyrazol-3-yl)amino)nicotinamide], the IC50 at TYK2-JH2 domain (setting [4]) was 0.077 nM; at JAK1-JH2 domain (setting [5]), 11 nM; in series [1] (setting [6]), 15.7 nM. For the same molecule, on TYK2-JH2 domain (setting [3]), the JAK1/TYK2 selectivity came to 142.7. Also, the microsomal CLint at 1 µM in series [2] (pH 7.4) came out at 22.8 µL/min/mg. Besides, the half-life at 1 µM in series [2] (pH 7.4) turned out to be 60.7 min. Besides, the solubility kinetic at 2 h in “Kinetic solubility” (setting [7]) was 57.2 µM (≈ 28.2 µg/mL).

`[2H]C([2H])([2H])NC(=O)c1cnc(Nc2cc(C)nc(C)n2)cc1Nc1cnn2ccc([C@H](O)C(F)(F)F)c(OC)c12` [Example 25, (S)-6-((2,6-Dimethylpyrimidin-4-yl)amino)-4-((4-methoxy-5-(2,2,2-trifluoro-1-hydroxyethyl)pyrazolo[1,5-a]pyridin-3-yl)amino)-N-(methyl-d3)nicotinamide]: the IC50 at TYK2-JH2 domain (setting [4]) came out at 0.068 nM; at JAK1-JH2 domain (setting [5]), 11.5 nM; in series [1] (setting [6]) it was 5.01 nM. Also, the JAK1/TYK2 selectivity on TYK2-JH2 domain (setting [3]) came out at 169.1. Besides, the solubility kinetic at 2 h in the series “Kinetic solubility” (setting [7]) worked out at 43 µM (≈ 22.3 µg/mL).

As to `[2H]C([2H])([2H])NC(=O)c1cnc(NC(=O)C2CC2)cc1Nc1cnn2ccc([C@H](OC)C(F)(F)F)c(OC)c12` [Example 27, (S)-6-(cyclopropanecarboxamido)-4-((4-methoxy-5-(2,2,2-trifluoro-1-methoxyethyl)pyrazolo[1,5-a]pyridin-3-yl)amino)-N-(methyl-d3)nicotinamide], the IC50 at TYK2-JH2 domain (setting [4]) turned out to be 0.064 nM; on JAK1-JH2 domain (setting [5]), 8.19 nM; in series [1] (setting [6]), 8.54 nM. Moreover, the JAK1/TYK2 selectivity at TYK2-JH2 domain (setting [3]) was 128.0. Besides, the solubility kinetic at 2 h in “Kinetic solubility” (setting [7]) was 14.2 µM (≈ 7.06 µg/mL).

With `[2H]C([2H])([2H])NC(=O)c1nnc(NC(=O)C2CC2)cc1Nc1cnn2ccc([C@H](O)C(F)(F)F)c(OC)c12` [Example 30, (S)-6-(cyclopropanecarboxamido)-4-((4-methoxy-5-(2,2,2-trifluoro-1-hydroxyethyl)pyrazolo[1,5-a]pyridin-3-yl)amino)-N-(methyl-d3)pyridazine-3-carboxamide], the IC50 at TYK2-JH2 domain (setting [4]) amounted to 0.088 nM; at JAK1-JH2 domain (setting [5]), 10.9 nM; in series [1] (setting [6]) it was 7.96 nM. For the same molecule, the JAK1/TYK2 selectivity at TYK2-JH2 domain (setting [3]) is 124.4. In series [2] (pH 7.4), the microsomal CLint at 1 µM was 17 µL/min/mg. Further, the half-life at 1 µM in series [2] (pH 7.4) was determined as 81.5 min. Moreover, the solubility kinetic at 2 h in “Kinetic solubility” (setting [7]) is 42 µM (≈ 20.2 µg/mL).

Take `COC(=O)c1cnc(NC(=O)C2CC2)cc1Nc1nn(C)c2ccc([C@H](OC)C(F)(F)F)c(OC)c12` [Example 45B, Methyl (S)-6-(cyclopropanecarboxamido)-4-((4-methoxy-1-methyl-5-(2,2,2-trifluoro-1-methoxyethyl)-1H-indazol-3-yl)amino)nicotinate]: the IC50 at TYK2-JH2 domain (setting [4]) was found to be 0.124 nM; on JAK1-JH2 domain (setting [5]), 24.5 nM; in series [1] (setting [6]), 2.53 nM. Also, the JAK1/TYK2 selectivity at TYK2-JH2 domain (setting [3]) was 197.30. Besides, the microsomal CLint at 1 µM in series [2] (pH 7.4) stood at 18.4 µL/min/mg. Also, the half-life at 1 µM in series [2] (pH 7.4) was 75.4 min. Further, in the series “Kinetic solubility” (setting [7]), the solubility kinetic at 2 h worked out at 9.37 µM (≈ 4.75 µg/mL).

`COC(=O)c1cnc(NC(=O)C2CC2)cc1Nc1nn(C)c2ccc([C@H](O)C(F)(F)F)c(OC)c12` [Example 48A, Methyl (S)-6-(cyclopropanecarboxamido)-4-((4-methoxy-1-methyl-5-(2,2,2-trifluoro-1-hydroxyethyl)-1H-indazol-3-yl)amino)nicotinate]: the IC50 was found to be 0.145 nM on TYK2-JH2 domain (setting [4]), 23 nM on JAK1-JH2 domain (setting [5]) and 1.5 nM in series [1] (setting [6]). In addition, on TYK2-JH2 domain (setting [3]), the JAK1/TYK2 selectivity is listed as 158.89. In addition, the solubility kinetic at 2 h in the series “Kinetic solubility” (setting [7]) was found to be 6.98 µM (≈ 3.44 µg/mL).

For the molecule `[2H]C([2H])([2H])NC(=O)c1cnc(NC(=O)C2CC2)cc1Nc1nn(C)c2ccc([C@H](O)C(F)(F)F)c(OC)c12` [Example 49A, (S)-6-(cyclopropanecarboxamido)-4-((4-methoxy-1-methyl-5-(2,2,2-trifluoro-1-hydroxyethyl)-1H-indazol-3-yl)amino)-N-(methyl-d3)nicotinamide], the IC50 on TYK2-JH2 domain (setting [4]) is 0.107 nM; at JAK1-JH2 domain (setting [5]), 5.28 nM; in series [1] (setting [6]), 0.464 nM. Besides, at TYK2-JH2 domain (setting [3]), the JAK1/TYK2 selectivity was determined as 49.3. For the same molecule, in series [2] (pH 7.4), the microsomal CLint at 1 µM worked out at 19.3 µL/min/mg. Besides, the half-life at 1 µM in series [2] (pH 7.4) was 71.7 min. The solubility kinetic at 2 h in the series “Kinetic solubility” (setting [7]) worked out at 45.5 µM (≈ 22.5 µg/mL).

As to `[2H]C([2H])([2H])O[C@@H](c1ccc2c(c(Nc3cc(NC(=O)C4CC4)ncc3C(=O)OC)nn2C)c1OC)C(F)(F)F` [Example 50B, Methyl (S)-6-(cyclopropanecarboxamido)-4-((4-methoxy-1-methyl-5-(2,2,2-trifluoro-1-(methoxy-d3)ethyl)-1H-indazol-3-yl)amino)nicotinate], the IC50 stood at 0.177 nM on TYK2-JH2 domain (setting [4]), 28.8 nM at JAK1-JH2 domain (setting [5]) and 2.85 nM in series [1] (setting [6]). Also, the JAK1/TYK2 selectivity on TYK2-JH2 domain (setting [3]) came out at 162.94. In addition, the microsomal CLint at 1 µM in series [2] (pH 7.4) turned out to be 10.9 µL/min/mg. For the same molecule, the half-life at 1 µM in series [2] (pH 7.4) came to 127 min. Besides, the solubility kinetic at 2 h in “Kinetic solubility” (setting [7]) worked out at 7.23 µM (≈ 3.69 µg/mL).

For `[2H]C([2H])([2H])NC(=O)c1cnc(NC(=O)C2CC2)cc1Nc1nn(C)c2ccc([C@H](OC([2H])([2H])[2H])C(F)(F)F)c(OC)c12` [Example 55A, (S)-6-(cyclopropanecarboxamido)-4-((4-methoxy-1-methyl-5-(2,2,2-trifluoro-1-(methoxy-d3)ethyl)-1H-indazol-3-yl)amino)-N-(methyl-d3)nicotinamide], the figures for the IC50 (at TYK2-JH2 domain (setting [4]); on JAK1-JH2 domain (setting [5]); in series [1] (setting [6])) were 0.052 nM, 2.54 nM and 0.352 nM, respectively. Moreover, at TYK2-JH2 domain (setting [3]), the JAK1/TYK2 selectivity is recorded as 48.9. Besides, the solubility kinetic at 2 h in “Kinetic solubility” (setting [7]) worked out at 7.78 µM (≈ 3.99 µg/mL).
